Measurements as given in the supplement of paper PMC10307832.

How the values were obtained:
Assay in all cases: relative viability (nuclei count vs DMSO), 5 days (fraction); higher = more cells survive
[1] = compound: COc1cccc2cc(-c3nc([C@H]4CC[C@H](C(=O)O)CC4)n4ncnc(N)c34)[nH]c12 [OSI-027] + C[C@@H](Oc1cc(-c2cnn(C3CCNCC3)c2)cnc1N)c1c(Cl)ccc(F)c1Cl [Crizotinib] (partner 1 µM)
Summary of the method: (§1)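 Dosing by pin tool came one day after lung cancer cell lines were seeded in 1536-well plates, using either one drug or a fixed anchor-drug dose plus five library-drug doses (not always all listed) in √10 steps. After 5 days, nuclei were counted on 4× images. Relative viability is treated-well nuclei count divided by vehicle-well nuclei count, and values are medians of duplicate plates.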

[2] = compound: COc1cccc2cc(-c3nc([C@H]4CC[C@H](C(=O)O)CC4)n4ncnc(N)c34)[nH]c12 [OSI-027] + O=C(CCCCCCC(=O)Nc1ccccc1)NO [Vorinostat] (partner 1 µM)
Summary of the method: as §1

[3] = compound: CCCS(=O)(=O)Nc1ccc(F)c(C(=O)c2c[nH]c3ncc(-c4ccc(Cl)cc4)cc23)c1F [Vemurafenib] + Cc1nc(Nc2ncc(C(=O)Nc3c(C)cccc3Cl)s2)cc(N2CCN(CCO)CC2)n1 [Dasatinib] (partner 0.075 µM)
Summary of the method: as §1

[4] = compound: Cc1nc(NC(=O)N2CCC[C@H]2C(N)=O)sc1-c1ccnc(C(C)(C)C(F)(F)F)c1 [Alpelisib] + N=C(N)NC(=N)NCCc1ccccc1 [Phenformin] (partner 250 µM)
Summary of the method: as §1

Cell Line | relative viability ([1]; first compound 0.01 µM) | relative viability ([1]; first compound 0.03162 µM) | relative viability ([1]; first compound 0.1 µM) | relative viability ([1]; first compound 0.3162 µM) | relative viability ([1]; first compound 1 µM) | relative viability ([2]; first compound 0.01 µM) | relative viability ([2]; first compound 0.03162 µM) | relative viability ([2]; first compound 0.1 µM) | relative viability ([2]; first compound 0.3162 µM) | relative viability ([2]; first compound 1 µM) | relative viability ([3]; first compound 0.03162 µM) | relative viability ([3]; first compound 0.1 µM) | relative viability ([3]; first compound 0.3162 µM) | relative viability ([3]; first compound 1 µM) | relative viability ([4]; first compound 0.04 µM) | relative viability ([4]; first compound 0.1265 µM) | relative viability ([4]; first compound 0.4 µM) | relative viability ([4]; first compound 1.265 µM) | relative viability ([4]; first compound 4 µM)
RERF-LC-KJ | 0.884 | 0.938 | 0.861 | 0.805 | 0.484 | 0.647 | 0.685 | 0.595 | 0.529 | 0.426 | 0.768 | 0.768 | 0.586 | 0.786 | 0.427 | 0.394 | 0.433 | 0.345 | 0.33
NCI-H1944 | 1.18 | 1.18 | 1.1 | 0.918 | 0.596 | 0.571 | 0.543 | 0.575 | 0.431 | 0.378 | 0.198 | 0.189 | 0.192 | 0.199 | 0.194 | 0.214 | 0.182 | 0.16 | 0.138
HARA | 1.07 | 0.85 | 0.999 | 1.09 | 0.407 | 0.581 | 0.568 |  | 0.507 | 0.251 | 0.272 | 0.215 | 0.195 | 0.201 | 0.48 | 0.451 | 0.555 | 0.331 | 0.301
A-427 | 0.91 | 0.821 | 0.866 | 0.673 | 0.374 | 0.886 | 0.844 | 0.78 | 0.721 | 0.542 | 0.597 | 0.624 | 0.446 | 0.581 | 0.354 | 0.212 | 0.329 | 0.26 | 0.243
NCI-H2023 | 0.679 | 0.587 | 0.614 | 0.501 | 0.295 | 0.7 | 0.698 | 0.526 | 0.581 | 0.34 | 0.507 | 0.506 | 0.444 | 0.489 | 0.404 | 0.408 | 0.371 | 0.287 | 0.282
NCI-H2347 | 0.668 | 0.609 | 0.673 | 0.388 | 0.405 | 0.556 | 0.403 | 0.55 | 0.447 | 0.339 | 0.346 | 0.311 | 0.692 | 0.346 | 0.445 | 0.299 | 0.416 | 0.38 | 0.376
NCI-H1975 | 1.1 | 0.88 | 0.99 | 0.97 | 0.828 | 0.722 | 0.647 | 0.672 | 0.657 | 0.496 | 0.359 | 0.339 | 0.206 | 0.378 | 0.417 | 0.41 | 0.387 | 0.298 | 0.208
HCC-15 | 0.933 | 0.712 | 0.789 | 0.732 | 0.482 | 0.835 | 0.838 | 0.779 | 0.616 | 0.424 | 0.551 | 0.67 |  | 0.726 | 0.5 | 0.434 | 0.45 | 0.372 | 0.274
COR-L23 | 0.688 | 0.549 | 0.674 | 0.985 | 0.4 | 0.524 | 0.436 | 0.403 | 0.408 | 0.297 | 0.423 | 0.503 | 0.443 | 0.482 | 0.388 | 0.414 | 0.49 | 0.402 | 0.36
NCI-H23 | 0.482 | 0.416 | 0.535 | 0.525 | 0.293 | 0.58 | 0.232 | 0.406 | 0.398 | 0.303 | 0.754 | 0.77 | 0.737 | 0.434 | 0.779 | 0.702 | 0.783 | 0.605 | 0.506
NCI-H441 | 0.679 | 0.613 | 0.633 | 0.604 | 0.338 | 0.837 | 0.77 | 0.757 | 0.741 | 0.431 | 0.565 | 0.663 | 0.838 | 0.542 | 0.955 | 0.749 | 0.832 | 0.469 | 0.45
NCI-H1650 | 1.13 | 0.999 | 0.886 | 1.2 | 0.531 | 0.56 | 0.515 | 0.532 | 0.407 | 0.358 |  | 0.301 |  | 0.305 | 0.405 | 0.408 | 0.43 | 0.362 | 0.308
NCI-H1734 | 0.618 | 0.509 | 0.731 | 0.599 | 0.394 | 0.912 | 0.781 | 0.728 | 0.707 | 0.455 | 0.436 | 0.474 | 0.357 | 0.432 | 0.376 |  | 0.349 | 0.275 | 0.23
HCC-366 | 0.817 | 0.315 | 0.52 | 0.415 | 0.119 | 0.404 | 0.367 | 0.325 | 0.314 | 0.194 | 0.576 | 0.643 | 0.265 | 0.564 | 0.639 | 0.608 | 0.636 | 0.428 | 0.139
LXF-289 | 0.859 | 0.827 | 0.892 | 0.909 | 0.759 | 0.767 | 0.836 | 0.827 | 0.902 | 0.787 | 0.203 | 0.236 | 0.0972 | 0.181 | 0.482 | 0.527 | 0.513 | 0.481 | 0.482
ChaGo-K-1 | 1.38 | 1.02 | 1.2 | 0.997 | 0.922 | 0.732 | 0.815 | 0.709 | 0.698 | 0.581 | 0.511 | 0.517 | 0.396 | 0.6 | 0.495 | 0.495 | 0.453 | 0.435 | 0.346
NCI-H838 | 0.803 | 0.696 | 0.599 | 0.447 | 0.367 | 0.65 | 0.646 | 0.632 | 0.55 | 0.459 | 0.256 | 0.22 |  | 0.325 | 0.523 | 0.507 | 0.549 | 0.41 | 0.355
